Measured values reported in patent publication US9113629B2, “4-amino-6-(4-substituted-phenyl)-picolinates and 6-amino-2-(4-substituted-phenyl)-pyrimidine-4-carboxylates and their use as herbicides” (DOW AGROSCIENCES LLC, priority 2013, dated 2015).
Where two headings read alike, the source gives them in different places.

Key:
[1] = test system: Key Broadleaf Weed and Crop Species; test: Post-emergent Test II herbicidal activity (Table 5); type: in vivo; conditions: post-emergence, 336 h, 14 days after application; for pest or weed control at 70 g/ha: application rate 70 g ai/ha; for pest or weed control at 140 g/ha: application rate 140 g ai/ha
Method in brief: (§1)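 Test species were raised 7–21 d under greenhouse conditions until reaching the first or second true leaf, sprayed with formulated compound at 187 L/ha, and kept subirrigated to avoid wash-off. Fourteen days later, damage was rated visually on a 0–100% scale against untreated plants.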

[2] = test system: Key Grass and Sedge Weeds as well as Grass Crops; test: Post-emergent Test II herbicidal activity (Table 6); type: in vivo; conditions: post-emergence, 336 h; for pest or weed control at 70 g/ha: 70 g ai/ha; for pest or weed control at 140 g/ha: 140 g ai/ha
Method in brief: as §1

[3] = ABUTH: velvetleaf (Abutilon theophrasti), read-out: Visual Growth Reduction (%) 14 Days After Application, ABUTH
[4] = AMARE: redroot pigweed (Amaranthus retroflexus), read-out: Visual Growth Reduction (%) 14 Days After Application, AMARE
[5] = BRSNN: oilseed-rape, canola (Brassica napus), read-out: Visual Growth Reduction (%) 14 Days After Application, BRSNN
[6] = CHEAL: lambsquarters (Chenopodium album), read-out: Visual Growth Reduction (%) 14 Days After Application, CHEAL
[7] = EPHHL: wild poinsettia (Euphorbia heterophylla), read-out: Visual Growth Reduction (%) 14 Days After Application, EPHHL
[8] = HELAN: sunflower (Helianthus annuus), read-out: Visual Growth Reduction (%) 14 Days After Application, HELAN
[9] = VIOTR: wild pansy (Viola tricolor), read-out: Visual Growth Reduction (%) 14 Days After Application, VIOTR
[10] = CYPES: yellow nutsedge (Cyperus esculentus), read-out: Visual Growth Reduction (%) 14 Days After Application, CYPES
[11] = DIGSA: crabgrass (Digitaria sanguinalis), read-out: Visual Growth Reduction (%) 14 Days After Application, DIGSA
[12] = ECHCG: barnyardgrass (Echinochloa crus-galli), read-out: Visual Growth Reduction (%) 14 Days After Application, ECHCG
[13] = ORYSA: rice (Oryza sativa), crop, read-out: Visual Growth Reduction (%) 14 Days After Application, ORYSA
[14] = SETFA: giant foxtail (Setaria faberi), read-out: Visual Growth Reduction (%) 14 Days After Application, SETFA
[15] = SORVU: grain sorghum (Sorghum vulgare), read-out: Visual Growth Reduction (%) 14 Days After Application, SORVU
[16] = TRZSS (wheat, Triticum aestivum), crop, read-out: Visual Growth Reduction (%) 14 Days After Application, TRZSS
[17] = ZEAMX: maize, corn (Zea mays), crop, read-out: Visual Growth Reduction (%) 14 Days After Application, ZEAMX

Row | SMILES | pest or weed control at 70 g/ha [1, 3] [%] | pest or weed control at 140 g/ha [1, 3] [%] | pest or weed control at 70 g/ha [1, 4] [%] | pest or weed control at 140 g/ha [1, 4] [%] | pest or weed control at 70 g/ha [1, 5] [%] | pest or weed control at 140 g/ha [1, 5] [%] | pest or weed control at 70 g/ha [1, 6] [%] | pest or weed control at 140 g/ha [1, 6] [%] | pest or weed control at 70 g/ha [1, 7] [%] | pest or weed control at 140 g/ha [1, 7] [%] | pest or weed control at 70 g/ha [1, 8] [%] | pest or weed control at 140 g/ha [1, 8] [%] | pest or weed control at 70 g/ha [1, 9] [%] | pest or weed control at 140 g/ha [1, 9] [%] | pest or weed control at 70 g/ha [2, 10] [%] | pest or weed control at 140 g/ha [2, 10] [%] | pest or weed control at 70 g/ha [2, 11] [%] | pest or weed control at 140 g/ha [2, 11] [%] | pest or weed control at 70 g/ha [2, 12] [%] | pest or weed control at 140 g/ha [2, 12] [%] | further results
1 | Nc1c(F)c(-c2ccc(OC(F)F)cc2)nc(C(=O)O)c1Cl [Compound 143] | 85 to 94 | 85 to 94 | 60 to 74 | 85 to 94 | 60 to 74 | 85 to 94 | 85 to 94 | 85 to 94 | 95 to 100 | 95 to 100 | 60 to 74 | 85 to 94 | 30 to 44 | 30 to 44 | 85 to 94 | 85 to 94 | 75 to 84 | 75 to 84 | 95 to 100 | 95 to 100 | pest or weed control at 70 g/ha [2, 13]: 0 to 29%; pest or weed control at 140 g/ha [2, 13]: 30 to 44%; pest or weed control at 70 g/ha [2, 14]: 75 to 84%; pest or weed control at 140 g/ha [2, 14]: 75 to 84%; pest or weed control at 70 g/ha [2, 15]: 85 to 94%; pest or weed control at 140 g/ha [2, 15]: 85 to 94%; pest or weed control at 70 g/ha [2, 16]: 45 to 59%; pest or weed control at 140 g/ha [2, 16]: 60 to 74%; pest or weed control at 70 g/ha [2, 17]: 85 to 94%; pest or weed control at 140 g/ha [2, 17]: 85 to 94%
2 | Nc1c(F)c(-c2ccc(Br)cc2)nc(C(=O)O)c1Cl [Compound 20] | 95 to 100 | 95 to 100 | 95 to 100 | 95 to 100 | 95 to 100 | 95 to 100 | 95 to 100 | 95 to 100 | 95 to 100 | 95 to 100 | 95 to 100 | 95 to 100 | 95 to 100 | 95 to 100 | 95 to 100 | 95 to 100 | 95 to 100 | 95 to 100 | 95 to 100 | 95 to 100 | pest or weed control at 70 g/ha [2, 13]: 60 to 74%; pest or weed control at 140 g/ha [2, 13]: 60 to 74%; pest or weed control at 70 g/ha [2, 14]: 95 to 100%; pest or weed control at 140 g/ha [2, 14]: 95 to 100%; pest or weed control at 70 g/ha [2, 15]: 95 to 100%; pest or weed control at 140 g/ha [2, 15]: 95 to 100%; pest or weed control at 70 g/ha [2, 16]: 75 to 84%; pest or weed control at 140 g/ha [2, 16]: 75 to 84%; pest or weed control at 70 g/ha [2, 17]: 95 to 100%; pest or weed control at 140 g/ha [2, 17]: 95 to 100%
